Assay results published in patent US9227956B2 (Pfizer Inc., priority 2013, dated 2016).

Experiments:
[1] = tested on: PCSK9; test: PCSK9 lowering in sandwich culture human hepatocytes (SCHH); type: cell-based; conditions: maximum response versus vehicle
Procedure: Test compound in-vitro pharmacokinetic and pharmacodynamic relationships were measured in sandwich culture primary cryopreserved human hepatocytes. Within these studies SCHH cells (BD Biosciences IVT) were thawed at 37° C. then placed on ice, after which the cells were added to pre-warmed (37° C.) In VitroGRO-HT media and centrifuged at 50×g for 3 min. The cell pellet was re-suspended to 0.8×10^6 cells/mL in InVitroGRO-CP plating medium and cell viability determined by trypan blue exclusion. On day 1, hepatocyte suspensions were plated in BioCoat 96-well plates at a density of 80000 cells/well in a volume of 0.1 mL/well. After 18 to 24 hours of incubation at 37° C. in 5% CO2, cells were overlaid with ice-cold 0.25 mg/mL BD Matrigel Matrix Phenol Red-Free in incubation medium at 0.1 mL/well. Cultures were maintained at 37° C. in 5% CO2 in InVitroGRO-HI (FBS-free media), which was replaced every 24 hours and time course treatments were initiated on day 5. Prior to compound treatment cell plates were washed 3 times with 0.1 mL/well InVitroGRO-HI and 0.09 mL of media was added back in preparation for the compound additions. 1 uL of either DMSO or compound DMSO stocks at 30 mM, 10 mM, 3 mM and 1 mM were stamped into 96 well V bottom polypropylene plates. 0.099 mL of media was added to the compound plate and mixed thoroughly before the addition of 0.010 mL from the interim compound plate to the cell plate. […] At the indicated time, 0.08 mL of media was removed from the cell plates and frozen for subsequent analysis of secreted PCSK9 by AlphaLISA and for determination of drug levels in the media by liquid chromatography-tandem mass spectrometry (LC-MS/MS). The remaining media was then aspirated and the cell layers were washed 3× with ice cold Hanks Balanced Salt Solution (HBSS) under shaking conditions to remove the matrigel overlay and plates were then stored at −20° C. for subsequent determination of drug levels in the cells by LC-MS/MS. AlphaLISA determination of PCSK9 protein levels within the conditioned media was performed ultilizing the identical reagents and detection protocols described above for the WT7 cells.

[2] = tested on: human PCSK9; test: PCSK9 AlphaLISA assay, PCSK9 lowering in WT7 cells; conditions: WT7 cells (Huh7 stably over-expressing human PCSK9); secreted PCSK9 by AlphaLISA; overnight incubation (16-24 h); top concentration 20 μM; read-out: Cell Based PCSK9 IC50
Source text: An in-vitro AlphaLISA assay (Perkin Elmer) was developed in order to quantitate the level of PCSK9 secreted into the cell culture media following compound treatment. To detect and measure PCSK9 protein an in-house generated anti-PCSK9 antibody was coupled to AlphaLISA acceptor beads by an external vendor (PerkinElmer) and a second internally developed anti-PCSK9 antibody with an epiptope distinct from that of the acceptor beads was biotinylated in house. Streptavidin coated-donor beads (Perkin Elmer) are also included in the assay mixture which then binds the biotinylated anti-PCSK9 antibody and in the presence of PCSK9 this donor complex and acceptor beads are brought into close proximity. […] The ability of compound to modulate PCSK9 protein levels in conditioned media by AlphaLISA was assessed in the human hepatocellular carcinoma cell line Huh7, stably over-expressing human PCSK9. […] Following plasmid transfection the stable WT7 clone was identified and maintained under Zeocin selection. Compound screening was performed in 384-well plates where WT7 cells were plated at a density of 7500 cells per well in 20 μL of tissue culture media containing compound in an eleven point, 0.5 log dilution format at a high treatment concentration of 20 μM in a final volume of 0.5% DMSO. In additional to these test compound conditions each screening plate also included wells that contained 20 μM puromycin as a positive assay control defined as high percent effect, HPE, as well as wells containing media in 0.5% DMSO as a negative treatment control defined as zero percent effect, ZPE. After overnight compound incubation (16-24 h) the tissue culture media was collected and an aliquot from each sample was transferred to individual wells of a 384-well white Optiplate (Perkin Elmer). The coupled antibodies and donor beads were added to the assay plates in a buffer composed of 30 mM Tris pH 7.4, 0.02% Tween-20 and 0.02% Casein. Anti-PCSK9 acceptor beads (final concentration of 10 μg/mL) and anti-PCSK9 biotinylated antibody (final concentration of 3 nM) were added and incubated for 30 minutes at room temperature followed by the addition of the streptavidin donor beads (final concentration 40 μg/mL) for an additional 60 minutes. Additionally a standard curve was generated where AlphaLISA reagents were incubated in wells spiked with recombinant human PCSK9 diluted in tissue culture media from 5000 ng/mL to 0.6 ng/mL. […] The test compound data were converted into percent effect, using the ZPE and HPE controls as 0% and 100% activity, respectively. The equation used for converting each well reading into percent effect was:
[formula] IC50 was then calculated and reported as the midpoint in the percent effect curve in molar units and the values are reported under the Cell Based PCSK9 IC50 (μM) column header within Table 1 Biological Data. Additionally, to monitor the selectivity of compound response for PCSK9 the level of a second secreted protein, Transferrin, was measured from the same conditioned media treated with test compound by AlphaLISA. […] To detect and quantify effects on Transferrin 0.01 mL of the culture media was transferred to a 384-well white Optiplate and 0.01 mL of media was added to bring the volume to 0.02 ml. Anti-Transferrin acceptor beads were added to a final concentration of 10 μg/mL, biotinylated anti-Transferrin at 3 nM and streptavidin donor beads at 40 μg/mL. Percent effect and IC50 for Transferrin was computed in a similar manner as that described for PCSK9.

[3] = tested on: human PCSK9; test: Cell Free PCSK9 Assay (PCSK9-luciferase RNA translated in HeLa cell lysate); type: biochemical; conditions: 30° C. for 45 minutes, luciferase readout, top concentration 100 μM
Procedure: In order to eliminate the permeability barrier inherent to the WT7 and SCHH cell-based assays a cell-free system was also established to access compound activity. […] The construct was then in-vitro transcribed using the MEGAscript T7 Kit (Life Technologies) and RNA subsequently purified incorporating the MEGAclear Kit (Life Technologies) according to manufacturer's protocols. […] Growth was in a 50 L wavebag at a rocker speed of 25 rpm and angle 6.1 with 5% CO2 and 0.2 LPM flow rate with cells harvested at a density of 2-2.5e6/ml. Lysates additionally contained 1 tablet of Roche cOmplete-EDTA protease inhibitors per 50 ml with tris(2-carboxyethyl)phosphine (Biovectra) substituted for dithiothreitol, and were clarified by an additional final centrifugation at 10,000 rpm in a Sorvall SS34 rotor at 4° C. for 10 minutes. Compound screening was performed in 384-well plates in an eleven point, 0.5 log dilution format at a top test compound concentration of 100 μM in a final volume of 0.5% DMSO. […] Upon assay completion 1 μL from each reaction solution was removed and transferred to a second 384-well Optiplate (Perkin Elmer) containing 24 μL of SteadyGlo (Promega) and signal intensity was measured on the Envision (Perkin Elmer) using the enhanced luminescence protocol. […] The test compound data were converted into percent effect, using the ZPE and HPE controls as 0% and 100% activity, respectively, applying Equation 1 above. IC50 was then calculated and reported as the midpoint in the percent effect curve in molar units and the values are reported under the Cell Free PCSK9 IC50 (μM) column header within Table 1 Biological Data.

| Sandwich Culture Hepatocyte (SCHH) PCSK9 Lowering ([1]; at 6 h at 30 uM) | IC50 [2] | IC50 [3] | Sandwich Culture Hepatocyte (SCHH) PCSK9 Lowering ([1]; at 8 h at 30 μM) | Compound |
| --- | --- | --- | --- | --- |
| 8% at 6 h at 30 uM | > 20 µM | 25.1 µM | – | CCC(=O)OC(C)n1nnc(-c2c(-c3ccc(C(=O)N(c4ncccc4C)[C@@H]4CCCNC4)cc3)cnn2C)n1 (single isomer, unassigned) [Example 45] |
| – | 9.5 µM | 3.7 µM | 70% at 8 h at 30 μM | CCOC(=O)OC(C)OC(=O)c1c(-c2ccc(C(=O)N(c3ncccc3Cl)[C@@H]3CCCNC3)cc2)cnn1C (stereo partly drawn) [Example 8, 1-[(ethoxycarbonyl)oxy]ethyl 4-(4-{(3-chloropyridin-2-yl)[(3R)-piperidin-3-yl]carbamoyl}phenyl)-1-methyl-1H-pyrazole-5-carboxylate] |
| 27% at 6 h at 30 uM | > 20 µM | 5.43 µM | – | CCOC(=O)OC(n1nnc(-c2c(-c3ccc(C(=O)N(c4ncccc4C)[C@@H]4CCCNC4)cc3)cnn2C)n1)C(C)(C)C (single isomer, unassigned) [Example 36] |
| 21% at 6 h at 30 uM | > 20 µM | 31.9 µM | – | Cc1cccnc1N(C(=O)c1ccc(-c2cnn(C)c2-c2nnn(C(OC(=O)OC(C)C)C(C)C)n2)cc1)[C@@H]1CCCNC1 (single isomer, unassigned) [Example 43] |
| – | 3.2 µM | 0.44 µM | 74% at 8 h at 30 μM | Cc1cccnc1N(C(=O)c1ccc(-c2cnn3cccnc23)cc1)[C@@H]1CCCNC1 [Example 1, N-(3-methylpyridin-2-yl)-N-[(3R)-piperidin-3-yl]-4-(pyrazolo[1,5-a]pyrimidin-3-yl)benzamide] |
| – | 7.3 µM | 3.1 µM | 72% at 8 h at 30 μM | CCOC(=O)O[C@@H](C)OC(=O)c1c(-c2ccc(C(=O)N(c3ncccc3Cl)[C@@H]3CCCNC3)cc2)cnn1C [Example 15a, (1S)-1-[(ethoxycarbonyl)oxy]ethyl 4-(4-{(3-chloropyridin-2-yl)[(3R)-piperidin-3-yl]carbamoyl}phenyl)-1-methyl-1H-pyrazole-5-carboxylate] |
| 28% at 6 h at 30 uM | > 20 µM | 6.2 µM | – | CCOC(=O)OC(C(C)C)n1nnc(-c2c(-c3ccc(C(=O)N(c4ncccc4C)[C@@H]4CCCNC4)cc3)cnn2C)n1 (single isomer, unassigned) [Example 35] |
| 37% at 6 h at 30 uM | > 20 µM | 8.03 µM | – | Cc1cccnc1N(C(=O)c1ccc(-c2cnn(C)c2-c2nnn(C(C)OC(=O)C(C)C)n2)cc1)[C@@H]1CCCNC1 (single isomer, unassigned) [Example 50] |
| 29% at 6 h at 30 uM | > 20 µM | 12.8 µM | – | Cc1cccnc1N(C(=O)c1ccc(-c2cnn(C)c2-c2nnn(C(OC(=O)C(C)C)C(C)C)n2)cc1)[C@@H]1CCCNC1 (single isomer, unassigned) [Example 54] |
| 25% at 6 h at 30 uM | > 20 µM | 22.9 µM | – | CCOC(=O)OC(n1nnc(-c2c(-c3ccc(C(=O)N(c4ncccc4C)[C@@H]4CCCNC4)cc3)cnn2C)n1)C(C)(C)C (single isomer, unassigned) [Example 37] |
| – | > 20 µM | 1.7 µM | 36% at 8 h at 30 μM | Cn1ncc(-c2ccc(C(=O)N(c3nccc4ccn(C)c34)[C@@H]3CCCNC3)cc2)c1C(=O)O [Example 12, 1-methyl-4-(4-{(1-methyl-1H-pyrrolo[2,3-c]pyridin-7-yl)[(3R)-piperidin-3-yl]carbamoyl}phenyl)-1H-pyrazole-5-carboxylic acid] |
| – | 1.5 µM | 0.64 µM | 87% at 8 h at 30 μM | COC(=O)c1c(-c2ccc(C(=O)N(c3ncccc3Cl)[C@@H]3CCCNC3)cc2)cnn1C [Example 10, Methyl 4-(4-{(3-chloropyridin-2-yl)[(3R)-piperidin-3-yl]carbamoyl}phenyl)-1-methyl-1H-pyrazole-5-carboxylate] |
| 0% at 6 h at 30 uM | > 20 µM | 31.8 µM | – | CCC(OC(=O)C(C)C)n1nnc(-c2c(-c3ccc(C(=O)N(c4ncccc4C)[C@@H]4CCCNC4)cc3)cnn2C)n1 (single isomer, unassigned) [Example 53] |
| 20% at 6 h at 30 uM | > 20 µM | 5.22 µM | – | CCOC(=O)OC(C(C)C)n1nnc(-c2c(-c3ccc(C(=O)N(c4ncccc4C)[C@@H]4CCCNC4)cc3)cnn2C)n1 (single isomer, unassigned) [Example 34] |
| 26% at 6 h at 30 uM | > 20 µM | 18.2 µM | – | CCC(OC(=O)OC(C)C)n1nnc(-c2c(-c3ccc(C(=O)N(c4ncccc4C)[C@@H]4CCCNC4)cc3)cnn2C)n1 (single isomer, unassigned) [Example 40] |
| 12% at 6 h at 30 uM | > 20 µM | 4.39 µM | – | CCC(=O)OC(C)n1nnc(-c2c(-c3ccc(C(=O)N(c4ncccc4C)[C@@H]4CCCNC4)cc3)cnn2C)n1 (single isomer, unassigned) [Example 44] |
